The source of these data is patent publication US9023789B2, “Amylin analogs and pharmaceutical compositions thereof” (Novo Nordisk A/S, priority 2012, dated 2015).

pEC50, pIC50: −log10 of the molar value. Where two headings read alike, the source gives them in different places. Numbered stars: 1 amine (or outer) side, 2 acyl side, 3 side chain; on linkers, the order of the positions; unused ones are H or OH. Bridge positions count the residues as written; N and C are the ends. Side chains are listed from the residue outwards. Peptide text beside a SMILES is read from it. * marks the point of attachment. C20 diacid = O=C(O)CCCCCCCCCCCCCCCCCCC(=O)*; γGlu = O=C(O)[C@H](CCC(=O)[*:2])N[*:1]; AEEA = NCCOCCOCC(=O)O

The target in series [1] is T1, human calcitonin receptor (Homo sapiens, UniProt P30988).
T1 construct: expressed in transfected cells
T1 sequence (P30988 25-474): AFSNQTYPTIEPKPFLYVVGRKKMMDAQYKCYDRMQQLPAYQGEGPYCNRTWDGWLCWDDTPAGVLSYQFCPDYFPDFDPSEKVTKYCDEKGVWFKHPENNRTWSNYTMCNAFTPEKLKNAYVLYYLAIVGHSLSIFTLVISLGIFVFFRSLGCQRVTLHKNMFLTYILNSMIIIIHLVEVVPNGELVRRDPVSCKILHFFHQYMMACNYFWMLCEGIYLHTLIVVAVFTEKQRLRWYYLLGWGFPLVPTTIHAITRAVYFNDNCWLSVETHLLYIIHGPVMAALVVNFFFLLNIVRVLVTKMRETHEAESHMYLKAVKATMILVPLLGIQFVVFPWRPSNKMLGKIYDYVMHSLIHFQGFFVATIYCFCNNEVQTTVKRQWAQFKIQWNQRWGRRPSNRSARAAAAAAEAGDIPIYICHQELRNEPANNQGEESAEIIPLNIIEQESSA
The series can be described thus: ASSAY (VII) binding to the human calcitonin receptor (SPA, 125I-Calcitonin).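 Further: cell membranes (35 ng/µL) combined with SPA beads in 40 µL of pH 7.4 Hepes buffer, 384-well format, signal counted on a TopCounter instrument.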 As to conditions: read-out: hCTR bind IC50.

Series [2] has as its target T2, human amylin receptor (membranes from Amylin 3(a)/CRE-luc cells) (Homo sapiens, UniProt O60896+P30988).
T2 construct: expressed in transfected cells
T2 sequence (P30988 25-474): T1 sequence (P30988 25-474)
T2 sequence (O60896 24-148 partner): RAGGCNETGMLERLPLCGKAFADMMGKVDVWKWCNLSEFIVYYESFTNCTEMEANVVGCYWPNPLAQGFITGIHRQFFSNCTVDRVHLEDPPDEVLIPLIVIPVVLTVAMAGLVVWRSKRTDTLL
The series can be described thus: ASSAY (V) binding to the human amylin receptor (SPA, 125I-rat amylin).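 On all read-outs here: competition binding of cell membranes (35 ng/µL) mixed with SPA beads in 384-well plates at 40 µL total volume, read by scintillation counting.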 As to conditions: for pIC50: Table 4, read-out: hAmylin-R bind IC50.

Series [3] deals with T3, human amylin 3(a) receptor (human calcitonin receptor + RAMP-3) in BHK570 cells (Homo sapiens, UniProt O60896+P30988).
T3 construct: expressed in transfected cells
Nature of the series: ASSAY (II)a functional assay, human amylin receptor (CRE luciferase). Format: cell-based. As to conditions: for pEC50: human amylin receptor functional potency, assay (II), read-out: hAmylin-R funct. EC50. The essentials: (§1)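 Functional agonism was measured by CRE-luciferase reporter luminescence in BHK cells bearing calcitonin receptor, or calcitonin receptor plus RAMP-3 as the amylin 3(a) receptor. Stimulation lasted 3 hours at 37° C.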

Another series deals with T4, rat calcitonin receptor (Rattus norvegicus, UniProt P32214).
T4 construct: expressed in transfected cells; host or cells: BHK tk'ts 13 (transient, FuGENE 6), membranes
T4 sequence (P32214 25-479 isoform P32214-2 limits assumed): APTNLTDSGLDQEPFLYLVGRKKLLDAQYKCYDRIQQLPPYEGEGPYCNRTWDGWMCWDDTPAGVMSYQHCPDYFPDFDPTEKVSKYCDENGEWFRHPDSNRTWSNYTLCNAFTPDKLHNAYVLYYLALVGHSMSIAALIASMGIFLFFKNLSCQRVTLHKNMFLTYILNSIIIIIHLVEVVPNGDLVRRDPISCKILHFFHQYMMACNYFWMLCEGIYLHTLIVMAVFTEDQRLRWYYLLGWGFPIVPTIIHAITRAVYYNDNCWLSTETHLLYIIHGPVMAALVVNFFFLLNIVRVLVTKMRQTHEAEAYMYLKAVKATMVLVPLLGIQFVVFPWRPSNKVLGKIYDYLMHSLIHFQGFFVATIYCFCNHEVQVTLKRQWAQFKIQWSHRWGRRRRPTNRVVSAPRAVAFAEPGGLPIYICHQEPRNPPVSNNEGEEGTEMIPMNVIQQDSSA
The series can be described thus: ASSAY (VIII) binding to the rat calcitonin receptor. The note with it: Table 7, read-out: rCTR bind IC50. The essentials: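 BHK tk′ts 13 cells, transient rat calcitonin receptor transfection; DMEM + 10% FBS; harvest ~48 h post-transfection; membrane prep.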

Series [4] addresses T5, human calcitonin (a) receptor in BHK570 cells (Homo sapiens, UniProt P30988).
T5 construct: expressed in transfected cells
T5 sequence (P30988 25-474): T1 sequence (P30988 25-474)
Nature of the series: ASSAY (II)a functional assay, human calcitonin receptor (CRE luciferase). Format: cell-based. As to conditions: read-out: hCTR funct. EC50. The essentials: as §1

Series [5] is described as follows: ASSAY (IV) determination of solubility. Format: physicochemical. In a few lines: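 Solubility measured by UPLC of supernatant after centrifugation, following 18 h at room temperature. Peptide ([…] in water) was diluted 1:1 into 100 mM glycylglycine (pH 3.0, 4.0, 5.0) or bistrispropane (pH 6.0-8.0).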
[6] abbreviates: Table 5, selectivity, hCTR bind IC50 / hAmylin-R bind IC50.
Setting [7] is: Table 5a, selectivity, hCTR bind IC50 / hAmylin-R bind IC50.
Where [8] appears, read: Table 5b, selectivity, hCTR bind IC50 / hAmylin-R bind IC50.
Where [9] appears, read: Table 5c, selectivity, hCTR bind IC50 / hAmylin-R bind IC50.
The mark [10] stands for this setting: Table 7, human binding selectivity, included for comparison.
The mark [11] stands for this setting: Table 7a (preferred compounds), human binding selectivity, included for comparison.
Setting [12] is: ratio of human calcitonin receptor binding IC50 to human amylin receptor binding IC50.
Setting [13] is: hCTR funct. EC50 divided by hAmylin-R funct. EC50.
Setting [14] is: human functional selectivity: hCTR funct. EC50 / hAmylin-R funct. EC50.
Setting [15] is: bistrispropane buffer, pH 6.5, read-out: Solubility pH 6.5 Concentration.
[16] abbreviates: bistrispropane buffer, pH 7.5, read-out: Solubility pH 7.5 Concentration.
Where [17] appears, read: bistrispropane buffer, pH 6.0, read-out: Solubility pH 6.0 Concentration.
Where [18] appears, read: bistrispropane buffer, pH 7.0, read-out: Solubility pH 7.0 Concentration.
Setting [19] is: bistrispropane buffer, pH 8.0, read-out: Solubility pH 8.0 Concentration.
The mark [20] stands for this setting: glycylglycine buffer, pH 3.0, read-out: Solubility pH 3.0 Concentration.
Where [21] appears, read: glycylglycine buffer, pH 4.0, read-out: Solubility pH 4.0 Concentration.
The mark [22] stands for this setting: glycylglycine buffer, pH 5.0, read-out: Solubility pH 5.0 Concentration.

As for `CC[C@H](C)[C@H](NC(=O)[C@H](C)NC(=O)CNC(=O)[C@H](Cc1ccccc1)NC(=O)[C@H](CC(N)=O)NC(=O)[C@@H]1CCCN1C(=O)[C@H](CO)NC(=O)[C@H](CO)NC(=O)[C@H](Cc1c[nH]cn1)NC(=O)[C@H](CCCNC(=N)N)NC(=O)[C@H](CC(C)C)NC(=O)[C@H](Cc1ccccc1)NC(=O)[C@H](CC(N)=O)NC(=O)[C@H](C)NC(=O)[C@H](CC(C)C)NC(=O)[C@H](CCCNC(=N)N)NC(=O)[C@H](CCC(N)=O)NC(=O)[C@@H](NC(=O)[C@H](C)NC(=O)[C@@H]1CSSC[C@H](NC(=O)[C@@H](N)CCCCNC(=O)COCCOCCNC(=O)CC[C@H](NC(=O)CCCCCCCCCCCCCCCCCCC(=O)O)C(=O)O)C(=O)N[C@@H](CC(N)=O)C(=O)N[C@@H]([C@@H](C)O)C(=O)N[C@@H](C)C(=O)N[C@@H]([C@@H](C)O)C(=O)N1)[C@@H](C)O)C(=O)N1CCC[C@H]1C(=O)N[C@@H](CO)C(=O)N1CCC[C@H]1C(=O)N[C@H](C(=O)N1CCC[C@H]1C(=O)N[C@H](C(=O)NCC(=O)N[C@@H](CO)C(=O)N[C@@H](CC(N)=O)C(=O)N[C@H](C(=O)N[C@@H](Cc1ccc(O)cc1)C(N)=O)[C@@H](C)O)C(C)C)[C@@H](C)O` [Example 54] (H-K([AEEA-γGlu-C20 diacid])CNTATCATQRLANFLRHSSPNFGAIPSPTPVGSNTY-NH2; disulfide 2-7; N-terminus assumed), the pIC50 (as a rule, the IC50 on a negative log10 scale, so that one unit is a factor of ten) is 8.36 in series [1], 10.52 in series [2] and 8.06 on rat calcitonin receptor. Moreover, the “Ratio hCT/hAmylin binding” value in series [2] (setting [6]), in series [2] (setting [7]), in series [2] (setting [8]), in series [2] (setting [9]), in series [2] (setting [10]) and in series [2] (setting [11]) was 146.1 throughout. In addition, the “Ratio hCT/hAmylin binding” value in series [2] (setting [12]) worked out at 146.1. Moreover, the “Ratio hCT/hAmylin funct.” value in series [3] (setting [13]) and in series [3] (setting [14]) was 9.6 in each case. Besides, the values for the pEC50 in series [3] and in series [4] were 9.99 and 9.01, respectively. Moreover, the solubility at 18 h in series [5] (setting [15]), in series [5] (setting [16]), in series [5] (setting [17]), in series [5] (setting [18]), in series [5] (setting [19]) and in series [5] (setting [20]) was no less than 200 µM throughout. For the same compound, the solubility at 18 h in series [5] (setting [21]) and in series [5] (setting [22]) was no less than 200 µM in each case.

For the compound `CC[C@H](C)[C@H](NC(=O)[C@H](C)NC(=O)CNC(=O)[C@H](Cc1ccccc1)NC(=O)[C@H](CC(N)=O)NC(=O)[C@@H]1CCCN1C(=O)[C@H](CO)NC(=O)[C@H](CO)NC(=O)[C@H](Cc1c[nH]cn1)NC(=O)[C@H](CCCNC(=N)N)NC(=O)[C@H](CC(C)C)NC(=O)[C@H](Cc1ccccc1)NC(=O)[C@H](CC(N)=O)NC(=O)[C@H](C)NC(=O)[C@H](CC(C)C)NC(=O)[C@H](CCCNC(=N)N)NC(=O)[C@H](CCC(N)=O)NC(=O)[C@@H](NC(=O)[C@H](C)NC(=O)[C@@H]1CSSC[C@H](NC(=O)[C@@H](N)CCCCNC(=O)CC[C@H](NC(=O)CCCCCCCCCCCCCCCCCCC(=O)O)C(=O)O)C(=O)N[C@@H](CC(N)=O)C(=O)N[C@@H]([C@@H](C)O)C(=O)N[C@@H](C)C(=O)N[C@@H]([C@@H](C)O)C(=O)N1)[C@@H](C)O)C(=O)N1CCC[C@H]1C(=O)N[C@@H](CO)C(=O)N[C@@H](CO)C(=O)N[C@H](C(=O)N[C@@H](CC(N)=O)C(=O)N[C@H](C(=O)NCC(=O)N[C@@H](CCCNC(=N)N)C(=O)N[C@@H](CC(N)=O)C(=O)N[C@H](C(=O)N[C@@H](Cc1ccc(O)cc1)C(N)=O)[C@@H](C)O)C(C)C)[C@@H](C)O` [Example 79] (H-K([γGlu-C20 diacid])CNTATCATQRLANFLRHSSPNFGAIPSSTNVGRNTY-NH2; disulfide 2-7 (inferred); N-terminus assumed), the pIC50 is 7.44 in series [1], 9.10 in series [2] and 7.45 at rat calcitonin receptor. For the same compound, the “Ratio hCT/hAmylin binding” value in series [2] (setting [6]), in series [2] (setting [7]), in series [2] (setting [8]), in series [2] (setting [9]), in series [2] (setting [10]) and in series [2] (setting [11]) was 46.1 in each case. In series [2] (setting [12]), the “Ratio hCT/hAmylin binding” value was 46.1. The “Ratio hCT/hAmylin funct.” value in series [3] (setting [13]), in series [3] (hCTR funct. EC50 over hAmylin-R funct. EC50) and in series [3] (setting [14]) was 24.5 throughout. Also, the negative logarithm of the EC50 (pEC50) (usually the EC50 on a negative log10 scale, so that one unit is a factor of ten) in series [3] is 9.79; in series [4], 8.40. The solubility at 18 h in series [5] (setting [15]), in series [5] (setting [16]), in series [5] (setting [17]), in series [5] (setting [18]), in series [5] (setting [19]) and in series [5] (setting [20]) was no less than 200 µM throughout. For the same compound, the solubility at 18 h in series [5] (setting [21]) and in series [5] (setting [22]) was no less than 200 µM in each case.
